Assay: Intravenous and intraduodenal (bolus) bioavailability of zanamivir from Capmul MCM L8 25, 50, 75 µL (Example 7)
Settings: male, Sprague-Dawley, rat, in vivo; for concentration at 0.83 hr / concentration at 1 hr / concentration at 1.5 hr / concentration at 2 hr / concentration at 0.25 hr / concentration at 0.5 hr / concentration at 0.033 hr / concentration at 0.083 hr: 1.5 mg/animal, Plasma concentration; for clearance / half-life / Vd / Tmax: 1.5 mg; for clearance: CL; for half-life: T1/2, IV 1.5 mg/animal; for Vd: Vss
Excerpt: Male Sprague-Dawley rats (Hilltop Labs), 3 animals per treatment group, 250-350 grams in weight, were fitted with a jugular vein cannula (JVC). Animals intended for intraduodenal dosing were also fitted with one or more intraduodenal cannula (IDC) and those intended for intravenous dosing were fitted with a second JVC. Food was withheld from the animals for a minimum of twelve hours prior to test article administration and was returned approximately four hours post-dose. Water was supplied ad libitum.
Intraduodenal doses composed of 1.5 mg of zanamivir and varying amounts of an enhancer (glycerol or Capmul MCM L8) were injected directly into the duodenum via the IDC. Intravenous dosing was conducted by the injection of 1.5 mg of zanamivir in 200 μL of PBS through a JVC. For some experiments, the absorption enhancer was administered intraduodenally 2 hr prior to administering 1.5 mg of zanamivir in PBS through a second IDC. Each intraduodenal dose was followed with the introduction of a small air bubble (˜10 μL) in the cannula followed by a flush of 125 μL of PBS to ensure the dose was given in full. The volume of PBS used for cannula flush was consistent across the treatment groups. The cannula was tied to prevent the PBS remaining in the cannula from entering the duodenum.
Blood samples collected via the JVC, approximately 400 μL each, were obtained at 2 min, 5 min, 15 min, 30 min, 60 min, 90 min, and 120 min, with sodium heparin used as an anti-coagulant. Each sample was placed into a chilled tube containing the anticoagulant and kept on ice until centrifugation at 4° C., 3,000×g, for 5 min. The plasma supernatants were stored at −70° C. until LC-MS analysis.
Dosing solution samples were assayed by LC-MS/MS using electrospray ionization. The chromatographic system consisted of Perkin Elmer series 200 micropumps and autosampler equipped with a Waters Atlantic® HILIC Silica 3 μM, 2.1×50 mm column. The mass spectrometer was a PE Sciex API 4000 with electrospray interface in multiple reaction monitoring mode. […] Stock solutions (1 mg/mL zanamivir) were prepared in water. Standards (eight concentrations) were prepared in the appropriate matched matrix (HBSSg or Sprague-Dawley rat plasma containing sodium heparin) and diluted 50-fold with methanol. Experimental samples were treated identically.
Standards and samples were prepared in Sprague Dawley rat plasma containing sodium heparin as an anticoagulant. An eight-point calibration curve was prepared at concentrations of 1000, 750, 500, 250, 100, 50, 25, and 10 ng/mL by serial dilution. Standard samples were treated identically to the study samples.
Plasma samples were extracted by protein precipitation in methanol.
In this example, the bioavailability of Zanamivir was evaluated after intraduodenal doses in male Sprague-Dawley rats. The test compound was dosed at 1.5 mg/animal through intravenous and intraduodenal routes from normal saline and Capmul MCM L8 formulations, respectively. Plasma levels were determined by LC-MS/MS analysis. Pharmacokinetic parameters were estimated by a non-compartmental model using WinNonlin v5.2.1 software.
Each ID dose in groups 2-4 will be followed with a small air bubble ([…]) and a flush of […] of PBS to insure the dose is given in full. The volume of PBS used for cannulae flush will be maintained consistent across the animals and the treatment groups. The cannula will then be tied to help prevent the PBS remaining in the cannula from entering the duodenum.

[1] = ID bolus 1.5 mg/animal, 50 µL Capmul MCM L8, Ex.7, individual rats
[2] = ID bolus 1.5 mg/animal, 50 µL Capmul MCM L8, Ex.7, mean
[3] = intraduodenal bolus, 75 μL Capmul MCM L8, mean of 3 rats
[4] = intraduodenal bolus, 75 μL Capmul MCM L8, rat 963
[5] = intraduodenal bolus, 75 μL Capmul MCM L8, rat 964
[6] = intraduodenal bolus, 75 μL Capmul MCM L8, rat 965
[7] = iv, IV 1.5 mg/animal, Normal Saline, Ex.7, individual rats
[8] = iv, IV 1.5 mg/animal, Normal Saline, Ex.7, mean

Question: With `CC(=O)NC1C(NC(=N)N)C=C(C(=O)O)OC1C(O)C(O)CO` (stereo not drawn) [Zanamivir, 5-acetamido-4-guanidino-6-(1,2,3-trihydroxypropyl)-5,6-dihydro-4H-pyran-2-carboxylic acid] as the compound, how does the concentration at 0.83 hr [1] read?
Answer: The concentration at 0.83 hr was 2620 ng/mL.

Question: What about the concentration at 0.83 hr [2] of the same compound?
Answer: Its concentration at 0.83 hr is 2120 ng/mL.

Question: And the concentration at 1 hr [1]?
Answer: Its concentration at 1 hr is 695 ng/mL.

Question: What about the concentration at 1 hr [2] of the same compound?
Answer: Its concentration at 1 hr is 651 ng/mL.

Question: And the concentration at 1.5 hr [1]?
Answer: Its concentration at 1.5 hr is 216 ng/mL.

Question: And the concentration at 1.5 hr [2]?
Answer: Its concentration at 1.5 hr is 244 ng/mL.

Question: What about the concentration at 2 hr [1] of the same compound?
Answer: The concentration at 2 hr was 103 ng/mL.

Question: What about the concentration at 2 hr [2] of the same compound?
Answer: The concentration at 2 hr was 120 ng/mL.

Question: And the concentration at 0.25 hr [3]?
Answer: Its concentration at 0.25 hr is 2390 ng/mL.

Question: What about the concentration at 0.25 hr [4] of the same compound?
Answer: The concentration at 0.25 hr was 2560 ng/mL.

Question: And the concentration at 0.25 hr [5]?
Answer: Its concentration at 0.25 hr is 1710 ng/mL.

Question: What about the concentration at 0.25 hr [6] of the same compound?
Answer: Its concentration at 0.25 hr is 2890 ng/mL.

Question: And the concentration at 0.5 hr [3]?
Answer: Its concentration at 0.5 hr is 1720 ng/mL.

Question: And the concentration at 0.5 hr [4]?
Answer: Its concentration at 0.5 hr is 1820 ng/mL.

Question: What about the concentration at 0.5 hr [5] of the same compound?
Answer: Its concentration at 0.5 hr is 1130 ng/mL.

Question: What about the concentration at 0.5 hr [6] of the same compound?
Answer: The concentration at 0.5 hr was 2200 ng/mL.

Question: And the concentration at 0.83 hr [3]?
Answer: Its concentration at 0.83 hr is 2570 ng/mL.

Question: And the concentration at 0.83 hr [4]?
Answer: The concentration at 0.83 hr was 2940 ng/mL.

Question: And the concentration at 0.83 hr [5]?
Answer: The concentration at 0.83 hr was 1690 ng/mL.

Question: And the concentration at 0.83 hr [6]?
Answer: The concentration at 0.83 hr was 3070 ng/mL.

Question: What about the concentration at 1 hr [3] of the same compound?
Answer: Its concentration at 1 hr is 828 ng/mL.

Question: And the concentration at 1 hr [4]?
Answer: Its concentration at 1 hr is 748 ng/mL.

Question: And the concentration at 1 hr [5]?
Answer: Its concentration at 1 hr is 807 ng/mL.

Question: What about the concentration at 1 hr [6] of the same compound?
Answer: The concentration at 1 hr was 929 ng/mL.

Question: And the concentration at 1.5 hr [3]?
Answer: The concentration at 1.5 hr was 349 ng/mL.

Question: And the concentration at 1.5 hr [4]?
Answer: The concentration at 1.5 hr was 403 ng/mL.

Question: And the concentration at 1.5 hr [5]?
Answer: The concentration at 1.5 hr was 273 ng/mL.

Question: What about the concentration at 1.5 hr [6] of the same compound?
Answer: Its concentration at 1.5 hr is 372 ng/mL.

Question: What about the concentration at 2 hr [3] of the same compound?
Answer: The concentration at 2 hr was 154 ng/mL.

Question: What about the concentration at 2 hr [4] of the same compound?
Answer: The concentration at 2 hr was 180 ng/mL.

Question: What about the concentration at 2 hr [5] of the same compound?
Answer: The concentration at 2 hr was 121 ng/mL.

Question: What about the concentration at 2 hr [6] of the same compound?
Answer: Its concentration at 2 hr is 160 ng/mL.

Question: And the clearance [7]?
Answer: The clearance was 10.5 mL/min/kg.

Question: And the clearance [8]?
Answer: Its clearance is 10.2 mL/min/kg.

Question: What about the half-life (iv, Normal Saline, Ex.7, individual rats) of the same compound?
Answer: Its half-life is 24.1 min.

Question: And the half-life (iv, Normal Saline, Ex.7, mean)?
Answer: Its half-life is 23.8 ± 2.1 min.

Question: What about the Vd [7] of the same compound?
Answer: The Vd was 0.276 L/kg.

Question: And the Vd [8]?
Answer: Its Vd is 0.271 ± 0.01 L/kg.

Question: What about the Tmax [7] of the same compound?
Answer: The Tmax was 0 h.

Question: And the Tmax [8]?
Answer: Its Tmax is 0 h.

Question: And the concentration at 0.033 hr [7]?
Answer: The concentration at 0.033 hr was 20900 ng/mL.

Question: And the concentration at 0.033 hr [8]?
Answer: The concentration at 0.033 hr was 21400 ng/mL.

Question: What about the concentration at 0.083 hr [7] of the same compound?
Answer: The concentration at 0.083 hr was 11000 ng/mL.

Question: What about the concentration at 0.083 hr [8] of the same compound?
Answer: The concentration at 0.083 hr was 12300 ng/mL.

Question: And the concentration at 0.25 hr [7]?
Answer: The concentration at 0.25 hr was 11000 ng/mL.

Question: What about the concentration at 0.25 hr [8] of the same compound?
Answer: Its concentration at 0.25 hr is 10700 ng/mL.

Question: And the concentration at 0.5 hr [7]?
Answer: Its concentration at 0.5 hr is 6270 ng/mL.

Question: What about the concentration at 0.5 hr [8] of the same compound?
Answer: The concentration at 0.5 hr was 6070 ng/mL.

Question: What about the concentration at 1 hr [7] of the same compound?
Answer: The concentration at 1 hr was 1560 ng/mL.

Question: And the concentration at 1 hr [8]?
Answer: The concentration at 1 hr was 1760 ng/mL.

Question: What about the concentration at 1.5 hr [7] of the same compound?
Answer: The concentration at 1.5 hr was 741 ng/mL.

Question: And the concentration at 1.5 hr [8]?
Answer: The concentration at 1.5 hr was 755 ng/mL.

Question: What about the concentration at 2 hr [7] of the same compound?
Answer: The concentration at 2 hr was 278 ng/mL.

Question: What about the concentration at 2 hr [8] of the same compound?
Answer: Its concentration at 2 hr is 310 ng/mL.

Reference: patent US20140314857A1, “FORMULATIONS FOR ENHANCED BIOAVAILABILITY OF ZANAMIVIR” (priority 2012, published 2014)
